Test results as given in ChEMBL document CHEMBL3526052 (Drug Metab Dispos, 2013).

What was measured:
[1] = biological target: T1, Equilibrative nucleoside transporter 2 (Homo sapiens, UniProt Q14542); assay: Binding affinity to recombinant human ENT2 expressed in Saccharomyces cerevisiae assessed as inhibition of [3H]-uridine transport after 15 mins by scintillation counting analysis; type: ADME
T1 sequence (Q14542 whole entry): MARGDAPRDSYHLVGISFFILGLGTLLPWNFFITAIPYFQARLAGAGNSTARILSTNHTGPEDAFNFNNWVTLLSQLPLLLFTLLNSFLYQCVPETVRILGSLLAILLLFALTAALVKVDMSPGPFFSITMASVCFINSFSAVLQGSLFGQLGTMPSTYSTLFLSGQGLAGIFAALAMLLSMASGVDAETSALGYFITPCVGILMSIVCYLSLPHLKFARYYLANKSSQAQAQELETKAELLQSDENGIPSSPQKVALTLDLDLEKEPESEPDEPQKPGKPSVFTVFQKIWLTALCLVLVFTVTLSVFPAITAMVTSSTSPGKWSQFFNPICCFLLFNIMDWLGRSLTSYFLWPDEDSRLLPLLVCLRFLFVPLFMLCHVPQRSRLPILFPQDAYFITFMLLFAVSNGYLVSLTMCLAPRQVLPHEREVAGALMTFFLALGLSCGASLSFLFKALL

[2] = biological target: T2, Sodium/nucleoside cotransporter 1 (Homo sapiens, UniProt O00337); assay: Binding affinity to recombinant human CNT1 expressed in Saccharomyces cerevisiae assessed as inhibition of [3H]-uridine transport after 15 mins by scintillation counting analysis; type: ADME
T2 sequence (O00337 whole entry): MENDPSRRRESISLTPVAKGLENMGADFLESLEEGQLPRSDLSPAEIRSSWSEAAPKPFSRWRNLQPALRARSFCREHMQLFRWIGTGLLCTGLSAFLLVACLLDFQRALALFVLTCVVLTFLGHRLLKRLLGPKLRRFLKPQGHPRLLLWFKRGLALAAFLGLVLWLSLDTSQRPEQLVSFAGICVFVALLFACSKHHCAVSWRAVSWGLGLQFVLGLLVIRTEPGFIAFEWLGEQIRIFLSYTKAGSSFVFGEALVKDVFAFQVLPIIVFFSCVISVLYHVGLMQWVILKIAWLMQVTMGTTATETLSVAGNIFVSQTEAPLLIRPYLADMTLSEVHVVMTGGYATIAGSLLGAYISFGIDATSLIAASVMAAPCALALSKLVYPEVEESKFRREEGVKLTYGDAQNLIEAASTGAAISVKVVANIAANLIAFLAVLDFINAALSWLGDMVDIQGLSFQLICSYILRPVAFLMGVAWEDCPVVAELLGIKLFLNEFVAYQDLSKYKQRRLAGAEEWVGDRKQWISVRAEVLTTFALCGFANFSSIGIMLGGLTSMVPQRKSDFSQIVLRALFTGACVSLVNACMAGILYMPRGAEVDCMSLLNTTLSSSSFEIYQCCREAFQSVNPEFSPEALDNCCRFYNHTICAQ

[3] = biological target: T3, Sodium/nucleoside cotransporter 2 (Homo sapiens, UniProt O43868); assay: Binding affinity to recombinant human CNT2 expressed in Saccharomyces cerevisiae assessed as inhibition of [3H]-uridine transport after 15 mins by scintillation counting analysis; type: ADME
T3 sequence (O43868 whole entry): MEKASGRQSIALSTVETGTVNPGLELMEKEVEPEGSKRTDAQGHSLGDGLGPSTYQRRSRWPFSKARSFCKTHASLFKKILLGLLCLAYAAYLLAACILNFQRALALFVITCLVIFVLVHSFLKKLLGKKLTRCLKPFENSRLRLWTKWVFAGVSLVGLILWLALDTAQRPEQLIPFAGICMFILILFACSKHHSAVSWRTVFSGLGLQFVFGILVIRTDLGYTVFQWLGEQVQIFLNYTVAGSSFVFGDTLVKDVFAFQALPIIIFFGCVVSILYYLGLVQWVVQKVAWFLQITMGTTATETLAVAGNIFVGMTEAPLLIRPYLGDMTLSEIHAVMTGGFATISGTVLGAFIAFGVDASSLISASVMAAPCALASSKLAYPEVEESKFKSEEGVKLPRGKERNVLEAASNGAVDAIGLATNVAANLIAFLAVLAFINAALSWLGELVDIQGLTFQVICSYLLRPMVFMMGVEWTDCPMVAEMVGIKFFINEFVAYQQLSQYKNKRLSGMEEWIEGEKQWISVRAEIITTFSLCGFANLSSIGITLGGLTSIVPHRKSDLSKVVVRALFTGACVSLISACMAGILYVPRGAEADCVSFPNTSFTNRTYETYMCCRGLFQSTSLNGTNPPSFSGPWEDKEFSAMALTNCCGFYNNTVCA

[4] = biological target: T4, Solute carrier family 28 member 3 (Homo sapiens, UniProt Q9HAS3); assay: Binding affinity to recombinant human CNT3 expressed in Saccharomyces cerevisiae assessed as inhibition of [3H]-uridine transport after 5 mins by scintillation counting analysis; type: ADME
T4 sequence (Q9HAS3 whole entry): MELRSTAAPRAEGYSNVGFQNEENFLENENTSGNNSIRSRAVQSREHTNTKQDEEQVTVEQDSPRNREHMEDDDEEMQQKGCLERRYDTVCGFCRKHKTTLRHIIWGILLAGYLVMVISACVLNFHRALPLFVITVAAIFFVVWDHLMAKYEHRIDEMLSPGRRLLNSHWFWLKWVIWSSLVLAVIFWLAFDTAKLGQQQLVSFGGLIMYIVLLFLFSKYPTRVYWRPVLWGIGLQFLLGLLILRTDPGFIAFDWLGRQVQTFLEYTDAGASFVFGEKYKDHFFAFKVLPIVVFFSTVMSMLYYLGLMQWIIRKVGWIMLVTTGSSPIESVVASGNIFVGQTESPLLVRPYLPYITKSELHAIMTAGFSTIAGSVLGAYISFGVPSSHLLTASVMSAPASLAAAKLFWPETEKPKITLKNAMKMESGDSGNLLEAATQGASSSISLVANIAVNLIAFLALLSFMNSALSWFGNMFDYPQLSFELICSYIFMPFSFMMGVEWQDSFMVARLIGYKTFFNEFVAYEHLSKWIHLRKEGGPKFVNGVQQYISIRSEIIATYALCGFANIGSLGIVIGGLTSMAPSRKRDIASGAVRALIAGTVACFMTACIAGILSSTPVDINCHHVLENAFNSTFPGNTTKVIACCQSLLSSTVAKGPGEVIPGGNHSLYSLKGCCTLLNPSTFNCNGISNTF

[5] = Tmax in CD-1 mouse brain at 60 mg/kg, iv administered as bolus dose in absence of ENT1 inhibitor NBMPR-P; type: ADME, organism-based; parameters: dose 60 mg/kg, route intravenous
[6] = Tmax in CD-1 mouse brain at 60 mg/kg, iv administered as bolus dose in presence of ENT1 inhibitor NBMPR-P; type: ADME, organism-based; parameters: dose 60 mg/kg, route intravenous
[7] = Cmax in CD-1 mouse brain at 60 mg/kg, iv administered as bolus dose in absence of ENT1 inhibitor NBMPR-P; type: ADME, organism-based; parameters: dose 60 mg/kg, route intravenous
[8] = Cmax in CD-1 mouse brain at 60 mg/kg, iv administered as bolus dose in presence of ENT1 inhibitor NBMPR-P; type: ADME, organism-based; parameters: dose 60 mg/kg, route intravenous
Brain [9] = assay: AUC (0 to 4 hrs) in CD-1 mouse brain at 60 mg/kg, iv administered as bolus dose in absence of ENT1 inhibitor NBMPR-P; type: ADME, organism-based; parameters: time < 4 hr, dose 60 mg/kg, route intravenous; details: in vivo
Brain [10] = assay: AUC (0 to 4 hrs) in CD-1 mouse brain at 60 mg/kg, iv administered as bolus dose in presence of ENT1 inhibitor NBMPR-P; type: ADME, organism-based; parameters: time < 4 hr, dose 60 mg/kg, route intravenous; details: in vivo
[11] = Apparent volume of distribution at steady state in CD-1 mouse at 60 mg/kg, iv administered as bolus dose in absence of ENT1 inhibitor NBMPR-P; type: ADME, organism-based; parameters: dose 60 mg/kg, route intravenous; details: in vivo, read-out: Vdss(app)
[12] = Apparent volume of distribution at steady state in CD-1 mouse at 60 mg/kg, iv administered as bolus dose in presence of ENT1 inhibitor NBMPR-P; type: ADME, organism-based; parameters: dose 60 mg/kg, route intravenous; details: in vivo, read-out: Vdss(app)
[13] = Elimination half life in CD-1 mouse at 60 mg/kg, iv administered as bolus dose in absence of ENT1 inhibitor NBMPR-P; type: ADME, organism-based; parameters: dose 60 mg/kg, route intravenous; details: in vivo, read-out: beta t1/2 (converted)
[14] = Elimination half life in CD-1 mouse at 60 mg/kg, iv administered as bolus dose in presence of ENT1 inhibitor NBMPR-P; type: ADME, organism-based; parameters: dose 60 mg/kg, route intravenous; details: in vivo, read-out: beta t1/2 (converted)
[15] = AUC (0 to infinity) in CD-1 mouse at 60 mg/kg, iv administered as bolus dose in absence of ENT1 inhibitor NBMPR-P; type: ADME, organism-based; parameters: time infinity, dose 60 mg/kg, route intravenous; details: plasma
[16] = AUC (0 to infinity) in CD-1 mouse at 60 mg/kg, iv administered as bolus dose in presence of ENT1 inhibitor NBMPR-P; type: ADME, organism-based; parameters: time infinity, dose 60 mg/kg, route intravenous; details: plasma

Row | SMILES | IC50 [1] [µM] | Ki ([1]; read-out: Ki(app)) [µM] | IC50 [2] [µM] | Ki ([2]; read-out: Ki(app)) [µM] | IC50 [3] [µM] | Ki ([3]; read-out: Ki(app)) [µM] | IC50 [4] [µM] | Ki ([4]; read-out: Ki(app)) [µM] | Tmax [5] [h] | Tmax [6] [h] | Cmax [7] [ng/g] | Cmax [8] [ng/g] | AUC (Brain [9]) [ng·h/g] | AUC (Brain [10]) [ng·h/g] | Vd [11] [L/kg] | Vd [12] [L/kg] | half-life [13] [h] | half-life [14] [h] | AUC(0-inf) [15] [ng·h/mL] | AUC(0-inf) [16] [ng·h/mL]
1 | Nc1ncnc2c1ncn2[C@@H]1O[C@H](CO)[C@@H](O)[C@H]1O [ADENOSINE] | 106 | 106 | 5.5 | 1.8 | 5.5 | 5.3 | 3.3 | 2.1 |  |  |  |  |  |  |  |  |  |  |  | 
2 | Nc1nc(F)nc2c1ncn2[C@@H]1O[C@H](CO)[C@@H](O)[C@@H]1O [FLUDARABINE] |  |  |  |  |  |  |  |  | 0.88 | 1.63 | 6050 | 801 | 11300 | 2490 | 1.6 | 2.6 | 1.7 | 2.2 | 39600 | 65700
